Measured values reported in US20210038559A1, “CANNABINOIDS AND DERIVATIVES FOR PROMOTING IMMUNOGENICITY OF TUMOR AND INFECTED CELLS” (priority 2018, published 2021).
Counter-ions that a name gives are not always drawn.

test system: MHC-I expression by COLO 205 cells; assay: cells; format: cell-based, human; conditions: not given
Experimental: A panel of synthetic cannabinoids (Cayman Chemical, #9002891) was tested for MHC class I-inducing capability in COLO 205 cells as described above. COLO 205 cells were treated with the compounds at a concentration of 35 μM and evaluated for cell surface MHC class I expression after 48 hours. Cells were harvested, stained with MHC-I mAb W6/32 (Thermo Fisher). MHC-I expression was determined by flow cytometry.

Molecule | Induction Fold [Fold]
[5-(3-fluorophenyl)-1-pentyl-1H-pyrrol-3-yl]-1-naphthalenyl-methanone [Example 109] | 2.37

same assay, conditions: Homo sapiens, COLO 205, 48 h, MHC-I expression, COLO 205 cells, compounds at 35 μM, 48 hours, flow cytometry (W6/32); read-out: Induction Fold

Molecule | fold induction at 35 µM
CCCCCn1c(C)c(C(=O)c2ccc(OC)c3ccccc23)c2ccccc21 [Example 372, (4-methoxy-1-naphthalenyl)(2-methyl-1-pentyl-1H-indol-3-yl)-methanone] | 0.6
CCCCCCC(C)(C)c1ccc([C@@H]2CCC[C@H](O)C2)c(O)c1 (relative stereo) [Example 353, rel-5-(1,1-dimethylheptyl)-2-[(1R,3S)-3-hydroxycyclohexyl]-phenol] | 1.06
CCCCCn1nc(C(=O)Nc2cccc3cccnc23)c2ccccc21 [Example 232, 1-pentyl-N-(quinolin-8-yl)-1H-indazole-3-carboxamide] | 1.71
O=C(Oc1cccc2ccccc12)c1nn(CCCCCF)c2ccccc12 [Example 167, naphthalen-1-yl 1-(5-fluoropentyl)-1H-indazole-3-carboxylate] | 2.01
C=CCCCn1cc(C(=O)C2C(C)(C)C2(C)C)c2ccccc21 [Example 148, (1-(pent-4-en-1-yl)-1H-indol-3-yl)(2,2,3,3-tetramethylcyclopropyl)methanone] | 2.14
CCCCCCC(C)(C)c1ccc([C@H]2C[C@@H](O)CC[C@@H]2CCCO)c(O)c1 [Example 365, 2-((1S,2S,5S)-5-hydroxy-2-(3-hydroxypropyl)cyclohexyl)-5-(2-methyloctan-2-yl)phenol] | 0.89
CC(C)[C@H](NC(=O)c1cc(-c2ccc(F)cc2)nn1CCCCCF)C(N)=O [Example 321, (S)-N-(1-amino-3-methyl-1-oxobutan-2-yl)-1-(5-fluoropentyl)-3-(4-fluorophenyl)-1H-pyrazole-5-carboxamide] | 1.29
CCCCCn1cc(C(=O)NC23CC4CC(CC(C4)C2)C3)c(=O)c2cc(C(C)C)ccc21 [Example 364, 1,4-dihydro-6-(1-methylethyl)-4-oxo-1-pentyl-N-tricyclo[3.3.1.1^3, 7]dec-1-yl-3-quinolinecarboxamide] | 0.89
CCCCCn1cc(C(=O)c2ccc(C)c3ccccc23)c2ccccc21 [Example 211, (4-methyl-1-naphthalenyl)(1-pentyl-1H-indol-3-yl)-methanone] | 1.83
CCCCCn1cc(C(=O)c2cccc3c(CC)cccc23)c2ccccc21 [Example 255, (5-ethyl-1-naphthalenyl)(1-pentyl-1H-indol-3-yl)-methanone] | 1.6
NC(=O)[C@H](Cc1ccccc1)NC(=O)c1cn(CCCCCF)c2ccccc12 [Example 267, (S)-N-(1-amino-1-oxo-3-phenylpropan-2-yl)-1-(5-fluoropentyl)-1H-indole-3-carboxamide] | 1.55
CCCCn1cc(C(=O)c2ccc3ccccc3c2)c2ccccc21 [Example 325, (1-butyl-1H-indol-3-yl)(naphthalen-2-yl)-methanone] | 1.26
CCCCCn1cc(C(=O)N2CCN(C)CC2)c2ccccc21 [Example 273, (4-methylpiperazin-1-yl)(1-pentyl-1H-indol-3-yl)methanone, monohydrochloride] | 1.53
CCC(C)(C)n1cc(C(=O)c2cccc3ccccc23)c2ccccc21 [Example 103, naphthalen-1-yl(1-(tert-pentyl)-1H-indol-3-yl)methanone] | 2.41
O=C(Oc1cncc2ccccc12)c1cn(CCCCCF)c2ccccc12 [Example 19, isoquinolin-4-yl 1-(5-fluoropentyl)-1H-indole-3-carboxylate] | 4.06
COC(=O)[C@@H](NC(=O)c1cn(CCCCCF)c2ccccc12)C(C)C [Example 354, N-[[1-(5-fluoropentyl)-1H-indol-3-yl]carbonyl]-L-valine, methyl ester] | 1.05
CCCCCCCn1cc(C(=O)C2C(C)(C)C2(C)C)c2ccccc21 [Example 118, (1-heptyl-1H-indol-3-yl)(2,2,3,3-tetramethylcyclopropyl)-methanone] | 2.33
CC(C)[C@H](NC(=O)c1nn(Cc2cccc(F)c2)c2ccccc12)C(N)=O [Example 221, N-[(1S)-1-(aminocarbonyl)-2-methylpropyl]-1-[(3-fluorophenyl)methyl]-1H-indazole-3-carboxamide] | 1.77
CCCCCn1cc(C(=O)Nc2cccc3ccccc23)c2ccccc21 [Example 329, N-1-naphthalenyl-1-pentyl-1H-indole-3-carboxamide] | 1.23
C=CCCCn1cc(C(=O)c2ccc(C)c3ccccc23)c2ccccc21 [Example 334, (4-methylnaphthalen-1-yl)(1-(pent-4-en-1-yl)-1H-indol-3-yl)methanone] | 1.2

Molecule | fold induction at 35 µM
CCCCCn1cc(C(=O)c2cccc3cc(C)ccc23)c2ccccc21 [Example 240, (6-methylnaphthalen-1-yl)(1-pentyl-1H-indol-3-yl)methanone] | 1.69
CN1CCCCC(n2cc(C(=O)c3ccccc3I)c3ccccc32)C1 (stereo not shown) [Example 24, (2-iodophenyl)(1-(1-methylazepan-3-yl)-1H-indol-3-yl)methanone] | 3.64
O=C(c1cccc2ccccc12)c1cn(CCCCCCl)c2ccccc12 [Example 177, (1-(5-chloropentyl)-1H-indol-3-yl)(naphthalen-1-yl)methanone] | 1.94
CCCCCn1cc(C(=O)c2cc(OC)cc3ccccc23)c2ccccc21 [Example 234, (3-methoxynaphthalen-1-yl)(1-pentyl-1H-indol-3-yl)methanone] | 1.71
COc1cccc2c(C(=O)N[C@@H]3C(C)(C)[C@@H]4CC[C@@]3(C)C4)c(C)n(CCN3CCOCC3)c12 [Example 295, 7-methoxy-2-methyl-1-[2-(4-morpholinyl)ethyl]-N-[(1S,2S,4R)-1,3,3-trimethylbicyclo[2.2.1]hept-2-yl]-1H-indole-3-carboxamide] | 1.43
CCCCCn1nc2ccccc2c1C(=O)Nc1cccc2ccccc12 [Example 294, N-(naphthalen-1-yl)-2-pentyl-2H-indazole-3-carboxamide] | 1.43
CCCCCCC(C)(C)c1ccc([C@@H]2CCC[C@H](O)C2)c(O)c1 [Example 39, 2[(1R,3S)-3-hydroxycyclohexyl]-5-(2-methyloctan-2-yl)phenol] | 3.14
NC(=O)[C@H](Cc1ccccc1)NC(=O)c1nn(Cc2ccc(F)cc2)c2ccccc12 [Example 213, N-[(1S)-2-amino-2-oxo-1-(phenylmethyl)ethyl]-1-[(4-fluorophenyl)methyl]-1H-indazole-3-carboxamide] | 1.81
CC(C)(O)CCn1c(=O)n(C(=O)N[C@H](C(N)=O)C(C)(C)C)c2ccccc21 [Example 345, N-[(1S)-1-(aminocarbonyl)-2,2-dimethylpropyl]-2,3-dihydro-3-(3-hydroxy-3-methylbutyl)-2-oxo-1H-benzimidazole-1-carboxamide] | 1.13
CC(C)(NC(=O)c1cn(CCCCCF)c2ncccc12)c1ccccc1 [Example 313, 1-(5-fluoropentyl)-N-(2-phenylpropan-2-yl)-1H-pyrrolo[2,3-b] pyridine-3-carboxamide] | 1.33
CCCCCn1cc(-c2nc(CN(CCOC)C(C)C)cs2)c2ccccc21 [Example 369, N-(2-methoxyethyl)-N-(1-methylethyl)-2-(1-pentyl-1H-indol-3-yl)-4-thiazolemethanamine, monohydrochloride] | 0.85
CCCCCn1cc(C(=O)Cc2ccccc2)c2ccccc21 [Example 80, 1-(1-pentyl-1H-indol-3-yl)-2-phenyl-ethanone] | 2.57
CC1(C)C(C(=O)c2cn(CCCCCF)c3ccccc23)C1(C)C [Example 51, (1-(5-fluoropentyl)-1H-indol-3-yl)(2,2,3,3-tetramethylcyclopropyl)methanone] | 2.99
CCCC(F)Cn1cc(C(=O)Nc2cccc3ccccc23)c2ccccc21 (stereo not shown) [Example 296, 1-(2-fluoropentyl)-N-(naphthalen-1-yl)-1H-indole-3-carboxamide] | 1.43
CCCCCn1cc(C(=O)N[C@@H](Cc2ccccc2)C(N)=O)c2ccccc21 [Example 246, (S)-N-(1-amino-1-oxo-3-phenylpropan-2-yl)-1-pentyl-1H-indole-3-carboxamide] | 1.65
CCC(F)CCn1cc(C(=O)c2ccc(C)c3ccccc23)c2ccccc21 (stereo not shown) [Example 174, (1-(3-fluoropentyl)-1H-indol-3-yl)(4-methylnaphthalen-1-yl)methanone] | 1.96
O=C(Oc1ccc2cccnc2c1)c1cn(CCCCCF)c2ccccc12 [Example 12, quinolin-7-yl 1-(5-fluoropentyl)-1H-indole-3-carboxylate] | 4.34
CCCCCn1cc(C(=O)c2cccc3cccc(C)c23)c2ccccc21 [Example 81, (8-methylnaphthalen-1-yl)(1-pentyl-1H-indol-3-yl)methanone] | 2.57
CCCCCn1cc(C(=O)Cc2ccc(Cl)cc2)c2ccccc21 [Example 64, 2-(4-chlorophenyl)-1-(1-pentyl-1H-indol-3-yl)-ethanone] | 2.77
CCCCCn1cc(C(=O)Nc2cccc3cccnc23)c2ccccc21 [Example 141, 1-pentyl-N-8-quinolinyl-1H-indole-3-carboxamide] | 2.19

same assay, conditions: MHC-I expression, COLO 205 cells, compounds at 35 μM, 48 hours, flow cytometry (W6/32)

Molecule | Induction Fold [Fold]
O=C(c1cccc2ccccc12)c1cn(CCCCCF)c2ccccc12 [Example 79, [1-(5-fluoropentyl)-1H-indol-3-yl]-1-naphthalenyl-methanone] | 2.57
CCCCCCN1C(=O)/C(=N\NC(=O)c2ccccc2)c2ccccc21 [Example 125, (2Z)-2-(1-hexyl-1,2-dihydro-2-oxo-3H-indol-3-ylidene)hydrazide, benzoic acid] | 2.29
